“Also recorded” adds a separate entry of the source.
Key:
DA rats = assay: Treatment of hexadecane-induced arthritis with hexadecene; type: in vivo, Rat (Rattus norvegicus)
Description: Groups of DA rats were injected i.d. at the base of the tail as follows: • Hexadecane 200 μL day 0; • Hexadecene 200 μL day 0; • Hexadecene 200 μL day −5, Hexadecane 200 μL day 0; • Olive oil 200 μL day −5, Hexadecane 200 μL day 0; • Hexadecene 200 μL day +5, Hexadecane 200 μL day 0; and • Olive oil day 200 μL +5, Hexadecane 200 μL day 0.
The rats were scored as indicated above. Olive oil was used as a control.

[1] = in vivo; cited from earlier work
[2] = Lymph node distribution of 14C-hexadecane after hexadecene at day -5; type: in vivo, Rat (Rattus norvegicus); conditions: hexadecene 0, 50, 100 or 200 μL day -5; 14C-hexadecane day 0; day 10
Description: An experiment was performed to determine if oils compete for available space in the lymph nodes and if such a competition was the reason for the preventive effects of pre-treatment with hexadecene and undecane. At day −5, DA rats were injected with one of the following amounts of hexadecene: 0 μL, 50 μL, 100 μL, or 200 μL. At day 0, all rats were injected intradermally with 14C-hexadecane at the base of the tail. At day 10, the rats were sacrificed and the lymph nodes were collected and placed in PBS, homogenized, and frozen. 1 mL of the homogenate was then transferred to Ready Safe (Beckman) and analysed in a β-counter (Beckman).

hexadecene
arthritis-inducing capacity (DA rats; 200 μL i.d. day 0 alone, FIG. 12, p<0.05 hexadecane vs hexadecene): does not | development of hexadecane induced arthritis (DA rats; hexadecene 200 μL i.d. day -5 or day +5, hexadecane day 0): None of the rats treated with hexadecene developed arthritis; also recorded: None of the rats treated with hexadecene showed any symptoms of arthritis | difference in arthritis scores vs control rats (DA rats; hexadecene day -5 and day +5, p<0.05): significant | arthritis induction [1]: do not | amount of hexadecane in draining lymph nodes [2]: not affected

From patent US7943338B2, “Autoimmune conditions and NADPH oxidase defects” (Arexis AB, priority 2002, dated 2011)
